Patent publication US8835464B2, “Triazole compounds that modulate HSP90 activity” (Synta Pharmaceuticals Corp., priority 2006, dated 2014)
pIC50: −log10 of the molar value. Structures can show the parent of a compound that is named as a salt.

test system: Hsp90; test: IC50 of compounds of the invention, Example B Method 2 (Tables 6-9); assay type: cell-based, human; settings: Table 7; Her2 degradation / inhibition of Hsp90; Method 2: MV-4-11 cells, 72 hours, Cell Counting Kit-8; read-out: IC50

SMILES | pIC50
CC(C)c1cc(-c2nnc(Nc3cccc(C(F)(F)F)c3)n2-c2ccc3c(ccn3C)c2)c(O)cc1O [Compound 7a, 4-isopropyl-6-(4-(1-methyl-1H-indol-5-yl)-5-(3-(trifluoromethyl)phenylamino)-4H-1,2,4-triazol-3-yl)benzene-1,3-diol] | < 5.30
CNc1nnc(-c2cc(C(C)C)c(O)cc2O)n1-c1ccc2c(ccn2C)c1 [Compound 2a, 4-Isopropyl-6-[4-(1-methyl-1H-indol-5-yl)-5-methylamino-4H-[1,2,4]triazol-3-yl]-benzene-1,3-diol] | 5.46

Other lines, results leading:

pIC50 | SMILES
5.23 | CC(C)c1cc(-c2nnc(NC(=O)C3CCCC3)n2-c2ccc3c(ccn3C)c2)c(O)cc1O [Compound 20a, N-(5-(2,4-dihydroxy-5-isopropylphenyl)-4-(1-methyl-1H-indol-5-yl)-4H-1,2,4-triazol-3-yl)cyclopentanecarboxamide]
5.77 | CC(C)c1cc(-c2nnc(NC(=O)c3ccc(F)c(F)c3)n2-c2ccc3c(ccn3C)c2)c(O)cc1O [Compound 17a, N-(5-(2,4-dihydroxy-5-isopropylphenyl)-4-(1-methyl-1H-indol-5-yl)-4H-1,2,4-triazol-3-yl)-3,4-difluorobenzamide]

same assay, conditions: Table 8; Her2 degradation / inhibition of Hsp90; Method 2: MV-4-11 cells, 72 hours, Cell Counting Kit-8; read-out: IC50

pIC50 | SMILES
7.54 | CC(C)c1cc(-c2nn(COC(=O)C(N)C(C)C)c(=O)n2-c2ccc3c(ccn3C)c2)c(O)cc1O (stereo not shown) [Compound 12b, (3-(2,4-dihydroxy-5-isopropylphenyl)-4-(1-methyl-1H-indol-5-yl)-5-oxo-4,5-dihydro-1H-1,2,4-triazol-1-yl)methyl 2-amino-3-methylbutanoate]
> 7.00 | COCCC(=O)Oc1cc(O)c(-c2nnc(OC(=O)CCOC)n2-c2ccc3c(ccn3C)c2)cc1C(C)C [Compound 18b, 5-hydroxy-2-isopropyl-4-(5-(3-methoxypropanoyloxy)-4-(1-methyl-1H-indol-5-yl)-4H-1,2,4-triazol-3-yl)phenyl 3-methoxypropanoate]

same assay, conditions: Table 9; Her2 degradation / inhibition of Hsp90; Method 2: MV-4-11 cells, 72 hours, Cell Counting Kit-8; dihydrochloride; read-out: IC50 Range

SMILES | pIC50
CC(C)c1cc(-c2nnc(O)n2-c2ccc(N(C)C)nc2)c(O)cc1O [Compound 7d, 4-(4-(6-(dimethylamino)pyridin-3-yl)-5-hydroxy-4H-1,2,4-triazol-3-yl)-6-isopropylbenzene-1,3-diol dihydrochloride] | 7.33

same assay, conditions: Table 9; Her2 degradation / inhibition of Hsp90; Method 2: MV-4-11 cells, 72 hours, Cell Counting Kit-8; read-out: IC50 Range

SMILES | pIC50
CC(C)c1cc(-c2nnc(O)n2-c2ccc(N(C)C)nc2)c(O)cc1O [Compound 6d, 4-(4-(6-(dimethylamino)pyridin-3-yl)-5-hydroxy-4H-1,2,4-triazol-3-yl)-6-isopropylbenzene-1,3-diol] | 7.24
COC(CN(C)c1ccc(-n2c(O)nnc2-c2cc(C(C)C)c(O)cc2O)cn1)OC [Compound 2d, 4-(4-(6-(N-(2,2-dimethoxyethyl)-N-methylamino)pyridin-3-yl)-5-hydroxy-4H-1,2,4-triazol-3-yl)-6-isopropylbenzene-1,3-diol] | 6.97
CC(C)c1cc(-c2nnc(O)n2-c2ccc(N(C)C)c(S(N)(=O)=O)c2)c(O)cc1O [Compound 12d, 5-(3-(2,4-dihydroxy-5-isopropylphenyl)-5-hydroxy-4H-1,2,4-triazol-4-yl)-2-(dimethylamino)benzene sulfonamide] | 6.47
CC(C)c1cc(-c2nnc(O)n2-c2cccc(S(=O)(=O)N(C)CCN(C)C)c2)c(O)cc1O [Compound 10d, 3-(3-(2,4-dihydroxy-5-isopropylphenyl)-5-hydroxy-4H-1,2,4-triazol-4-yl)-N-(2-(dimethylamino)ethyl)-N-methylbenzenesulfonamide] | < 6.48

Now from value to compound:

pIC50 | SMILES
6.48 | CC(C)c1cc(-c2nnc(O)n2-c2cccc(S(=O)(=O)N3CCOCC3)c2)c(O)cc1O [Compound 15d, 4-(5-hydroxy-4-(3-(morpholinosulfonyl)phenyl)-4H-1,2,4-triazol-3-yl)-6-isopropylbenzene-1,3-diol]
7.31 | CC(C)c1cc(-c2nnc(O)n2-c2ccc(N3CCOCC3)nc2)c(O)cc1O [Compound 19d, 4-(5-hydroxy-4-(6-morpholinopyridin-3-yl)-4H-1,2,4-triazol-3-yl)-6-isopropylbenzene-1,3-diol]
